In PubChem BioAssay (NCI) one finds GI50 and TGI data, which are given here for eight molecules.

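Compound exposure: 48 hours, 5 concentrations, 96-well plates. Here, GI50 denotes the concentration required for 50% inhibition of growth. TGI is the concentration that stops growth completely.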

Some test systems named below: BT-549 breast; OVCAR-3 ovarian; COLO 205 colon; SNB-75 CNS; SK-MEL-5 melanoma; SW-620 colon; HOP-62 NSCLC; K-562 leukemia; MCF7 breast; SF-539 CNS.
Experiment in all cases: inhibition of tumour cell growth, NCI panel, 48 h

With `COc1ccc2c(c1OC)-c1c(c3ccc([N+](=O)[O-])cc3c(=O)n1CCCBr)C2=O`, the GI50 is 50.8 µM in the assay on BT-549 breast; above 100 µM in the assay on OVCAR-3 ovarian; above 100 µM in the assay on COLO 205 colon; 26.8 µM with SNB-75 CNS; 18.1 µM with SK-MEL-5 melanoma; 5.59 µM in the assay on SW-620 colon. The GI50 in the assay on HOP-62 NSCLC was 21.8 µM; with K-562 leukemia, 99.7 µM; in the assay with MCF7 breast, 3.66 µM. For the same molecule, the TGI with BT-549 breast is above 100 µM; in the assay with OVCAR-3 ovarian, above 100 µM; with COLO 205 colon, above 100 µM; in the assay on SNB-75 CNS, 60.6 µM; with SK-MEL-5 melanoma, above 100 µM; in the assay on SW-620 colon, above 100 µM. Besides, the TGI was 58.5 µM in the assay on HOP-62 NSCLC, above 100 µM in the assay on K-562 leukemia and 20.6 µM in the assay with MCF7 breast.

For `COC(=O)C(CCC(=O)CCl)N1C(=O)c2ccccc2C1=O` (configuration not stated), the TGI worked out at 21.8 µM with BT-549 breast; 16.7 µM in the assay on OVCAR-3 ovarian; 40.3 µM in the assay on COLO 205 colon; 29.3 µM with SNB-75 CNS; 16.1 µM in the assay with SK-MEL-5 melanoma; 22 µM with SF-539 CNS. The TGI in the assay with SW-620 colon came out at 15.6 µM; in the assay with HOP-62 NSCLC it was 29 µM; with K-562 leukemia, 12.7 µM; in the assay on MCF7 breast it was 18.5 µM.

As for `O=c1c2cc(-c3ccccc3)sc2ncn1Cc1ccc(Cl)c(Cl)c1`, the GI50 with BT-549 breast is 21 µM; with OVCAR-3 ovarian, 15.8 µM; with COLO 205 colon, above 100 µM; in the assay with SNB-75 CNS, 18.1 µM; in the assay with SK-MEL-5 melanoma, 34.2 µM; in the assay on SF-539 CNS it was 14 µM. Besides, the GI50 in the assay with SW-620 colon was above 100 µM; in the assay with HOP-62 NSCLC, 10.3 µM; in the assay on K-562 leukemia it was 20.7 µM; in the assay with MCF7 breast, 12.1 µM. The TGI with BT-549 breast is 60.4 µM; in the assay on OVCAR-3 ovarian, 36.2 µM; in the assay on COLO 205 colon, above 100 µM; in the assay on SNB-75 CNS it was 48.7 µM; in the assay on SK-MEL-5 melanoma, above 100 µM; with SF-539 CNS it was 43 µM. In addition, the TGI with SW-620 colon is above 100 µM; in the assay with HOP-62 NSCLC, 24.7 µM; with K-562 leukemia it was above 100 µM; in the assay with MCF7 breast, above 100 µM.

`CNNC(=N\S(=O)(=O)c1cc(C)c(Cl)cc1SCc1ccccc1)/N=C/c1ccc([N+](=O)[O-])s1`: the GI50 is above 100 µM with BT-549 breast; above 44.1 µM with OVCAR-3 ovarian; 0.776 µM with COLO 205 colon; above 100 µM in the assay with SNB-75 CNS; 1.48 µM in the assay on SK-MEL-5 melanoma; above 100 µM in the assay with SF-539 CNS. Also, the GI50 in the assay on SW-620 colon is 30.9 µM; in the assay with HOP-62 NSCLC, above 100 µM; in the assay with K-562 leukemia it was 28.4 µM; in the assay on MCF7 breast, 97.9 µM. The TGI with BT-549 breast was above 100 µM; in the assay with OVCAR-3 ovarian, above 100 µM; in the assay with SNB-75 CNS, above 100 µM; with SK-MEL-5 melanoma, above 37.3 µM; in the assay on SF-539 CNS, above 100 µM; in the assay on SW-620 colon it was above 100 µM. Further, the TGI with HOP-62 NSCLC, in the assay on K-562 leukemia and with MCF7 breast was above 100 µM throughout.

Take `CCCCCCCCOC(=O)c1c(C)[nH]c(/C=C2\N=C(c3ccc[nH]3)C=C2OC)c1C`: the GI50 with BT-549 breast was 0.164 µM; with OVCAR-3 ovarian, 0.0276 µM; with COLO 205 colon it was 0.0846 µM; with SNB-75 CNS it was 0.0451 µM; in the assay on SK-MEL-5 melanoma, 0.0169 µM; in the assay with SF-539 CNS, 0.0529 µM. In addition, the GI50 in the assay on SW-620 colon was below 0.0181 µM; with HOP-62 NSCLC, 0.23 µM; in the assay on K-562 leukemia it was 0.0212 µM; in the assay with MCF7 breast it was 0.0462 µM. The TGI with BT-549 breast was 14.4 µM; with OVCAR-3 ovarian, 0.422 µM; in the assay on COLO 205 colon, 2.62 µM; with SNB-75 CNS it was 0.432 µM; in the assay on SK-MEL-5 melanoma it was 0.0819 µM; with SF-539 CNS, 2.62 µM. The TGI in the assay on SW-620 colon was found to be 1.56 µM; in the assay on HOP-62 NSCLC it was 11.7 µM; in the assay with K-562 leukemia, 14.2 µM; in the assay with MCF7 breast, 1.67 µM.

On to `COc1cc2ncnc(-n3ncc4cc(NC(=O)Nc5ccc(Cl)c(Cl)c5)ccc43)c2cc1OC`, for which the GI50 with BT-549 breast is 1.97 µM; with OVCAR-3 ovarian, 1.92 µM; in the assay with COLO 205 colon, 2.32 µM; in the assay on SNB-75 CNS it was 1.24 µM; in the assay with SK-MEL-5 melanoma it was 2.09 µM; with SF-539 CNS it was 0.612 µM. Further, the GI50 in the assay with SW-620 colon is 2.26 µM; in the assay with HOP-62 NSCLC it was 1.91 µM; with K-562 leukemia it was 3.02 µM; in the assay on MCF7 breast, 1.85 µM. For the same molecule, the TGI with BT-549 breast was found to be 4.17 µM; with OVCAR-3 ovarian it was 3.7 µM; in the assay with COLO 205 colon, 5.58 µM; in the assay with SNB-75 CNS it was 3.41 µM; in the assay with SK-MEL-5 melanoma, 3.89 µM; in the assay with SF-539 CNS it was 2.47 µM. For the same molecule, the TGI was found to be 4.76 µM with SW-620 colon, 3.76 µM in the assay with HOP-62 NSCLC, 10.8 µM in the assay with K-562 leukemia and 4.56 µM with MCF7 breast.

For the molecule `c1cc(-c2nnc(SSc3ncnc4nc[nH]c34)o2)ccn1`, the GI50 was 9.47 µM in the assay with BT-549 breast; 0.319 µM in the assay on OVCAR-3 ovarian; 3.3 µM in the assay with COLO 205 colon; 0.672 µM in the assay with SNB-75 CNS; 3.46 µM in the assay on SK-MEL-5 melanoma; 1.84 µM in the assay with SF-539 CNS. In addition, the GI50 with SW-620 colon is 3.38 µM; in the assay on HOP-62 NSCLC, 2.52 µM; in the assay with K-562 leukemia, 0.351 µM; with MCF7 breast, 0.419 µM. Also, the TGI in the assay on BT-549 breast was above 100 µM; in the assay with OVCAR-3 ovarian it was 1.73 µM; in the assay with COLO 205 colon, 23.8 µM; in the assay with SNB-75 CNS it was above 100 µM; in the assay on SK-MEL-5 melanoma, above 100 µM; in the assay on SF-539 CNS, above 100 µM. Also, the TGI in the assay on SW-620 colon, in the assay on HOP-62 NSCLC, in the assay on K-562 leukemia and in the assay on MCF7 breast was above 100 µM each time.

`CCn1c(-c2cc3c([nH]c4ccccc43)c(-c3cccc(O)c3)n2)n[nH]c1=S`: the GI50 was 3.51 µM in the assay with BT-549 breast; 3.13 µM in the assay with OVCAR-3 ovarian; 7.65 µM in the assay on COLO 205 colon; 1.26 µM in the assay on SNB-75 CNS; 1.45 µM in the assay with SK-MEL-5 melanoma; 2.42 µM in the assay with SF-539 CNS. In addition, the GI50 in the assay with SW-620 colon is 4.15 µM; with HOP-62 NSCLC, 4.71 µM; in the assay with K-562 leukemia it was 1.88 µM; with MCF7 breast it was 2.79 µM. In addition, the TGI with BT-549 breast was determined as 25.9 µM; in the assay with OVCAR-3 ovarian, 11.4 µM; in the assay on COLO 205 colon it was 24.3 µM; with SNB-75 CNS, 4.85 µM; in the assay with SK-MEL-5 melanoma, 3.06 µM; with SF-539 CNS, 9.27 µM. The TGI with SW-620 colon is 18.9 µM; in the assay with HOP-62 NSCLC, 16 µM; with K-562 leukemia, above 100 µM; in the assay on MCF7 breast, 14 µM.
